According to patent publication US20030232040A1, “Biocidal methods and compositions” (SureCide Technologies, LLC, priority 2000, published 2003):
Entries after “also recorded” stand apart in the source; their conditions may differ.

Test system: Escherichia coli (ATCC strain #25404)
Assay: High-throughput 96-well liquid outgrowth system for the measurement of bacterial cell killing
Type: cell-based
Conditions: for log kill / antimicrobial effect of the stress inducer after iron pre-incubation: 10 min 1 mM FeCl2 in iso-osmotic saline (130 mM NaCl, pH 5.0), then 10 min a range of concentrations of the stress inducer; for antimicrobial effectiveness: 1 mM FeCl2 10 min; for kill by the stress inducer alone: no FeCl2 pre-treatment, 10 min a range of concentrations of the stress inducer, iso-osmotic saline
Text: Classical methods for determining antimicrobial effects involve exposure of cells to disinfectant or antiseptic agents contained in tubes or vials, removal of the agents by centrifugation, washing of the cells to remove disinfectant residues, plating of the cells at a number of dilutions onto culture plates, and enumeration of the resulting colonies. Such methods are inadequate for the purposes of the present invention for two principle reasons, namely, treatment of cells in tubes is too lengthy for the determination of rapid effects (e.g., on the order of 1-5 minutes), and treatment and plating are too laborious for the accurate determination of many different interactions in parallel. […] In these experiments, the assays were prepared as follows, and quadruplicate wells were treated in parallel. A high-throughput 96-well liquid outgrowth system was devised for the measurement of bacterial cell killing. Known numbers of living cells were treated, and unknown numbers of surviving cells were quantified by measuring the rate of liquid outgrowth of the culture relative to a standard curve, as determined by optical density. Cells of Escherichia coli (ATCC strain #25404) were grown to mid-log cell density (absorbance of about 0.1 at 600 nm) in 100 mL of Luria Broth (LB) at 37° C. in Erlenmeyer flasks, and then chilled at 0° C. on ice prior to use. “Treatment” plates were prepared as follows. Chilled cells were aliquoted (approximately 50 μL) into wells of a 96-well filtration plate (Multiscreen® (Millipore Corporation, Bedford, Mass.), having a 0.22 μm hydrophilic Durapore® membrane at the bottom of the wells). The LB medium was removed by vacuum filtration, and the remaining cells were washed with 150 μL of an iso-osmotic solution, either sterile saline solution (SSS, 130 mM NaCl, pH 5.0) or sterile HEPES-buffered saline (HBS, 0.595% HEPES, 0.82% NaCl, pH 7.05). The cells on the treatment plate were then exposed to various free iron (for example, FeCl2) and optional stress inducer treatments as described in the examples delineated below. The FeCl2 solutions were always prepared fresh on the day of use from the anhydrous salt. The cells in a set number of wells were not treated; these untreated cells were serially diluted and used to construct a standard curve. “Reading” plates were made from the treatment plate by adding approximately 130 μL of sterile LB medium to each well of three sterile polycarbonate microtiter plates (Corning). […] of the resuspended cells from all wells of the treatment plate were then transferred to a corresponding well on the reading plates, which were then sealed (for example, using polypropylene sealing mats) and incubated at 37° C. with vigorous shaking. Absorbance readings of turbidity (measured at λ=600 nm) were recorded at approximately 45minute intervals over a time course ranging from about two to about seven hours. Cell densities of the wells containing the treated cells were calculated by comparison to the standard curve. Absorbance readings were performed at 600 nm using a standard microtiter plate absorbance reader (Multiskan® microplate reader by Labsystems, Helsinki, FI). The measurements collected for the treated cells were disregarded unless they fell within a region of linear growth in liquid culture, which was individually determined for each time point reading. Generally, acceptable measurements ranged from about 0.020 to about 0.200 OD units. […] Techniques for calculating slopes and determining concentrations from standard curves are known to one skilled in the art, FeCl2 solutions were prepared from the anhydrous salt, and peroxide (H2O2) dilutions are prepared fresh from a 30% w/w stock solution. Cells were plated as described above, then treated with FeCl2 at concentrations ranging from about 1 μM to about 1.024 mM (in HBS). Cells were exposed to the FeCl2 solution for approximately 10 minutes at room temperature (i.e., iron “pre-treatment”).

Molecule	log kill / antimicrobial effect of the stress inducer after iron pre-incubation	kill by the stress inducer alone	further results
O=P([O-])([O-])[O-].[Na+].[Na+].[Na+] [TSP, trisodium phosphate]	enhanced by pre-incubation of the cells with free iron	–	–
[Cl][Fe][Cl] [FeCl2]	–	–	antimicrobial effectiveness (then NaCl near the iso-osmotic point (130 mM) (FIG. 4)): minimally effective; antimicrobial effectiveness (then hypo-osmotic (0 mM NaCl) or hyper-osmotic (600 mM) conditions (FIG. 4)): maximally effective; cell killing (10 min 1 mM FeCl2 in iso-osmotic saline, then 10 min in a range of osmolarities of sodium chloride (FIG. 4)): resulted in killing at all osmolarities; FeCl2 pre-treatment concentration that increases the sensitivity of cells to subsequent H2O2 (10 min FeCl2 in HBS, then 10 min H2O2 about 73 μM to about 1 mM (FIG. 2B)): ≥ 16 µM; cell killing (decrease in cell viability) (FeCl2 alone, about 1 μM to about 1.024 mM in iso-osmotic HBS, 10 min room temperature, no hydrogen peroxide (FIG. 2A)): did not result in appreciable cell killing at any concentration; also recorded: relatively small antimicrobial effect; reduction of microbial population (FeCl2 pre-treatment 10 min in HBS, then H2O2 10 min at concentrations as low as 73 μM (FIG. 2A)): reduced the microbial populations significantly
lysozyme	highly effective	none of the concentrations of lysozyme used resulted in any kill alone	–
OCl [hypochlorite]	highly effective	none of the concentrations of bleach used resulted in any kill alone	–
O=C(O)CC(O)(CC(=O)O)C(=O)O [citric acid]	potentiated by pre-incubation with iron	–	–
